Test results reported in patent publication US9073855B2, “BCL-2 selective apoptosis-inducing agents for the treatment of cancer and immune diseases” (AbbVie Inc., priority 2008, dated 2015).

Columns and labels:
[1] = target: GST-Bcl-2 (Homo sapiens, UniProt P10415); assay: TR-FRET binding assay, GST-Bcl-2 with F-Bak peptide probe; details: TR-FRET Binding Affinity, GST-Bcl-2, F-Bak peptide probe
In short: (§1)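 Ki was derived with Wang's equation for competitive binding of two ligands. The read-out was time-resolved fluorescence after a 3 h room-temperature incubation, using a Tb-labelled antibody donor and the F-Bak peptide acceptor (excitation 340/35 nm). Test compounds entered as DMSO serial dilutions starting at 50 μM, which was the 2× concentration.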

[2] = target: GST-Bcl-XL (Homo sapiens, UniProt Q07817); assay: TR-FRET binding assay, GST-Bcl-XL with F-Bak peptide probe; details: TR-FRET Binding Affinity, GST-Bcl-XL, F-Bak peptide probe
GST-Bcl-XL, sequence (Q07817 whole entry): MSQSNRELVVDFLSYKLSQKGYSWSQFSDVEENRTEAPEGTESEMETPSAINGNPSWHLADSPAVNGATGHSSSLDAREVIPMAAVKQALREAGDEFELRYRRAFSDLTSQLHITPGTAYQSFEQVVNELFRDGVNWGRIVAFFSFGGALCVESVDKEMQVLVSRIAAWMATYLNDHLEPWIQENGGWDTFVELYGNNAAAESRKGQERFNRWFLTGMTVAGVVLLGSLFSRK
In short: as §1

[3] = test system: FL5.12/Bcl-2 cells; assay: FL5.12/Bcl-2 cell viability assay under IL-3 withdrawal (CellTitre Glo); type: cell-based, murine; details: Mus musculus, IL-3 withdrawn 48 hrs, then 24 hrs with compound
In short: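 Viability measured by CellTitre Glo after FL5.12/Bcl-2 murine cells, starved of IL-3 for 48 hrs, were treated with compounds for another 24 hrs. Killing reflects inhibition of Bcl-2 sequestration of Bim and Puma.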

GST-Bcl-2, sequence (P10415 whole entry): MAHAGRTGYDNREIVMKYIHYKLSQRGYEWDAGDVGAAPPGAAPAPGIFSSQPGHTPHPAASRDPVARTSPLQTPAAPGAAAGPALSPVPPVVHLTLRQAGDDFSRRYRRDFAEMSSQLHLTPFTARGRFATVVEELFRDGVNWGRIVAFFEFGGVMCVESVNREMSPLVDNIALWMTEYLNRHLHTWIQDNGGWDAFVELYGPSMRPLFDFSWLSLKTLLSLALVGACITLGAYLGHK

Compound | Ki [1] [nM] | Ki [2] [nM] | EC50 [3] [nM]
CC1(C)CCC(CN2CCN(c3ccc(C(=O)NS(=O)(=O)c4ccc(NCC5CCS(=O)(=O)C5)c([N+](=O)[O-])c4)c(Oc4cccc5[nH]ccc45)c3)CC2)=C(c2ccc(Cl)cc2)C1 (stereo not drawn) [Example 326, 4-(4-{[2-(4-chlorophenyl)-4,4-dimethylcyclohex-1-en-1-yl]methyl}piperazin-1-yl)-N-[(4-{[(1,1-dioxidotetrahydrothien-3-yl)methyl]amino}-3-nitrophenyl)sulfonyl]-2-(1H-indol-4-yloxy)benzamide] | 0.116 | > 660 | 35.1
CC(C1=C(c2ccc(Cl)cc2)CC(C)(C)CC1)N1CCN(c2ccc(C(=O)NS(=O)(=O)c3ccc(NCC4CCOCC4)c([N+](=O)[O-])c3)c(Oc3ccc4[nH]ccc4c3)c2)CC1 (stereo not drawn) [Example 253, 4-(4-{1-[2-(4-chlorophenyl)-4,4-dimethylcyclohex-1-en-1-yl]ethyl}piperazin-1-yl)-2-(1H-indol-5-yloxy)-N-({3-nitro-4-[(tetrahydro-2H-pyran-4-ylmethyl)amino]phenyl}sulfonyl)benzamide] | 0.142 | > 660 | 7.58
CC1(C)CCC(CN2CCN(c3ccc(C(=O)NS(=O)(=O)c4ccc(NCC5CCOCC5)c([N+](=O)[O-])c4)c(Oc4cccc5[nH]cnc45)c3)CC2)=C(c2ccc(Cl)cc2)C1 [Example 403, 2-(1H-benzimidazol-4-yloxy)-4-(4-{[2-(4-chlorophenyl)-4,4-dimethylcyclohex-1-en-1-yl]methyl}piperazin-1-yl)-N-({3-nitro-4-[(tetrahydro-2H-pyran-4-ylmethyl)amino]phenyl}sulfonyl)benzamide] | 0.003 | 24.3 | 2.92
CC1(C)CCC(CN2CCN(c3ccc(C(=O)NS(=O)(=O)c4ccc(NC5CCS(=O)(=O)C5)c([N+](=O)[O-])c4)c(Oc4cccc5[nH]ccc45)c3)CC2)=C(c2ccc(Cl)cc2)C1 (stereo not drawn) [Example 299, 4-(4-{[2-(4-chlorophenyl)-4,4-dimethylcyclohex-1-en-1-yl]methyl}piperazin-1-yl)-N-({4-[(1,1-dioxidotetrahydrothien-3-yl)amino]-3-nitrophenyl}sulfonyl)-2-(1H-indol-4-yloxy)benzamide] | 0.425 | 246 | 77.2
CC1(C)CCC(CN2CCN(c3ccc(C(=O)NS(=O)(=O)c4ccc(NCCCN5CCNC(=O)C5)c([N+](=O)[O-])c4)c(Oc4ccc5[nH]ccc5c4)c3)CC2)=C(c2ccc(Cl)cc2)C1 [Example 222, 4-(4-{[2-(4-chlorophenyl)-4,4-dimethylcyclohex-1-en-1-yl]methyl}piperazin-1-yl)-2-(1H-indol-5-yloxy)-N-[(3-nitro-4-{[3-(3-oxopiperazin-1-yl)propyl]amino}phenyl)sulfonyl]benzamide] | 0.107 | 137 | 23.7
CC(C)C[C@@H](CO)Nc1ccc(S(=O)(=O)NC(=O)c2ccc(N3CCN(CC4=C(c5ccc(Cl)cc5)CC(C)(C)CC4)CC3)cc2Oc2ccc3[nH]ccc3c2)cc1[N+](=O)[O-] [Example 369, 4-(4-{[2-(4-chlorophenyl)-4,4-dimethylcyclohex-1-en-1-yl]methyl}piperazin-1-yl)-N-[(4-{[(1S)-1-(hydroxymethyl)-3-methylbutyl]amino}-3-nitrophenyl)sulfonyl]-2-(1H-indol-5-yloxy)benzamide] | 838 | > 660 | > 500
O=C(NS(=O)(=O)c1ccc(NCC2CCOCC2)c([N+](=O)[O-])c1)c1ccc(N2CCN(CC3=C(c4ccc(Cl)cc4)CCC(N4CCOCC4)C3)CC2)cc1Oc1ccc2[nH]ccc2c1 (stereo not drawn) [Example 249, 4-(4-{[2-(4-chlorophenyl)-5-morpholin-4-ylcyclohex-1-en-1-yl]methyl}piperazin-1-yl)-2-(1H-indol-5-yloxy)-N-({3-nitro-4-[(tetrahydro-2H-pyran-4-ylmethyl)amino]phenyl}sulfonyl)benzamide] | 0.09 | > 660 | 41.2
CC(C)(C)c1ccc(CN2CCN(c3ccc(C(=O)NS(=O)(=O)c4ccc(NCC5CCOCC5)c([N+](=O)[O-])c4)c(Oc4ccc5[nH]ccc5c4)c3)CC2)c(-c2ccc(Cl)cc2)c1 [Example 341, 4-{4-[(5-tert-butyl-4′-chloro-1,1′-biphenyl-2-yl)methyl]piperazin-1-yl}-2-(1H-indol-5-yloxy)-N-({3-nitro-4-[(tetrahydro-2H-pyran-4-ylmethyl)amino]phenyl}sulfonyl)benzamide] | 13 | > 660 | > 500
CC1(C)CCC(CN2CCN(c3ccc(C(=O)NS(=O)(=O)c4cnc(OCC5CCOCC5)c(-c5nccs5)c4)c(Oc4ccc5[nH]ccc5c4)c3)CC2)=C(c2ccc(Cl)cc2)C1 [Example 331, 4-(4-{[2-(4-chlorophenyl)-4,4-dimethylcyclohex-1-en-1-yl]methyl}piperazin-1-yl)-2-(1H-indol-5-yloxy)-N-{[6-(tetrahydro-2H-pyran-4-ylmethoxy)-5-(1,3-thiazol-2-yl)pyridin-3-yl]sulfonyl}benzamide] | 8.27 | > 660 | > 500
CC(C)(C)c1ccc(CN2CCN(c3ccc(C(=O)NS(=O)(=O)c4ccc(OCC5CCOCC5)c([N+](=O)[O-])c4)c(Oc4ccc5[nH]ccc5c4)c3)CC2)c(-c2ccc(Cl)cc2)c1 [Example 342, 4-{4-[(5-tert-butyl-4′-chloro-1,1′-biphenyl-2-yl)methyl]piperazin-1-yl}-2-(1H-indol-5-yloxy)-N-{[3-nitro-4-(tetrahydro-2H-pyran-4-ylmethoxy)phenyl]sulfonyl}benzamide] | 25.8 | > 660 | > 500
CC1(C)CCC(CN2CCN(c3ccc(C(=O)NS(=O)(=O)c4ccc(NCCC#N)c([N+](=O)[O-])c4)c(Oc4ccc5[nH]ccc5c4)c3)CC2)=C(c2ccc(Cl)cc2)C1 [Example 319, 4-(4-{[2-(4-chlorophenyl)-4,4-dimethylcyclohex-1-en-1-yl]methyl}piperazin-1-yl)-N-({4-[(2-cyanoethyl)amino]-3-nitrophenyl}sulfonyl)-2-(1H-indol-5-yloxy)benzamide] | 0.413 | 208 | 31.4
COc1ccc(Nc2ccc(S(=O)(=O)NC(=O)c3ccc(N4CCN(CC5=C(c6ccc(Cl)cc6)CC(C)(C)CC5)CC4)cc3Oc3ccc4[nH]ccc4c3)cc2[N+](=O)[O-])cc1 [Example 372, 4-(4-{[2-(4-chlorophenyl)-4,4-dimethylcyclohex-1-en-1-yl]methyl}piperazin-1-yl)-2-(1H-indol-5-yloxy)-N-({4-[(4-methoxyphenyl)amino]-3-nitrophenyl}sulfonyl)benzamide] | > 1200 | > 660 | > 500
CC1(C)CCC(c2ccc(Cl)cc2)=C(CN2CCN(c3ccc(C(=O)NS(=O)(=O)c4ccc(NCC5CCOCC5)c([N+](=O)[O-])c4)c(Oc4ccc5[nH]ccc5c4)c3)CC2)C1 [Example 290, 4-(4-{[2-(4-chlorophenyl)-5,5-dimethylcyclohex-1-en-1-yl]methyl}piperazin-1-yl)-2-(1H-indol-5-yloxy)-N-({3-nitro-4-[(tetrahydro-2H-pyran-4-ylmethyl)amino]phenyl}sulfonyl)benzamide] | 0.365 | > 660 | 44.7
CC1(C)CCC(CN2CCN(c3ccc(C(=O)NS(=O)(=O)c4ccc(OCC5CCOCC5)c(C(N)=O)c4)c(Oc4ccc5[nH]ccc5c4)c3)CC2)=C(c2ccc(Cl)cc2)C1 [Example 357, N-{[3-(aminocarbonyl)-4-(tetrahydro-2H-pyran-4-ylmethoxy)phenyl]sulfonyl}-4-(4-{[2-(4-chlorophenyl)-4,4-dimethylcyclohex-1-en-1-yl]methyl}piperazin-1-yl)-2-(1H-indol-5-yloxy)benzamide] | 1.34 | > 660 | > 500
CC1(C)CCC(CN2CCN(c3ccc(C(=O)NS(=O)(=O)c4ccc(NC5CCN(CCCC(F)(F)F)CC5)c([N+](=O)[O-])c4)c(Oc4ccc5[nH]ccc5c4)c3)CC2)=C(c2ccc(Cl)cc2)C1 [Example 216, 4-(4-{[2-(4-chlorophenyl)-4,4-dimethylcyclohex-1-en-1-yl]methyl}piperazin-1-yl)-2-(1H-indol-5-yloxy)-N-[(3-nitro-4-{[1-(4,4,4-trifluorobutyl)piperidin-4-yl]amino}phenyl)sulfonyl]benzamide] | 0.615 | > 660 | 39.8
CC1(C)CCC(CN2CCN(c3ccc(C(=O)NS(=O)(=O)c4ccc(OCC5(F)CCOCC5)c([N+](=O)[O-])c4)c(Oc4cccc5[nH]cnc45)c3)CC2)=C(c2ccc(Cl)cc2)C1 [Example 408, 2-(1H-benzimidazol-4-yloxy)-4-(4-{[2-(4-chlorophenyl)-4,4-dimethylcyclohex-1-en-1-yl]methyl}piperazin-1-yl)-N-({4-[(4-fluorotetrahydro-2H-pyran-4-yl)methoxy]-3-nitrophenyl}sulfonyl)benzamide] | 0.002 | 28.1 | 2.39
CC1(C)CCC(CN2CCN(c3ccc(C(=O)NS(=O)(=O)c4cnc(OCC5CCOCC5)c(Br)c4)c(Oc4cccc5[nH]ccc45)c3)CC2)=C(c2ccc(Cl)cc2)C1 [Example 364, N-{[5-bromo-6-(tetrahydro-2H-pyran-4-ylmethoxy)pyridin-3-yl]sulfonyl}-4-(4-{[2-(4-chlorophenyl)-4,4-dimethylcyclohex-1-en-1-yl]methyl}piperazin-1-yl)-2-(1H-indol-4-yloxy)benzamide] | 0.006 | 76 | 185
